Experimental data from article PMC5243976 (Iranian Journal of Basic Medical Sciences, 2017).
pIC50: −log10 of the molar value.

What follows are compounds tested against acetylcholinesterase from electric eel source (AChE, E.C. 3.1.1.7, Type V-S) (Electrophorus electricus, UniProt O42275) (assay: Ellman test, anti-acetylcholinesterase activity).
Type: biochemical

acetylcholinesterase from electric eel source (AChE, E.C. 3.1.1.7, Type V-S), sequence (O42275 24-633): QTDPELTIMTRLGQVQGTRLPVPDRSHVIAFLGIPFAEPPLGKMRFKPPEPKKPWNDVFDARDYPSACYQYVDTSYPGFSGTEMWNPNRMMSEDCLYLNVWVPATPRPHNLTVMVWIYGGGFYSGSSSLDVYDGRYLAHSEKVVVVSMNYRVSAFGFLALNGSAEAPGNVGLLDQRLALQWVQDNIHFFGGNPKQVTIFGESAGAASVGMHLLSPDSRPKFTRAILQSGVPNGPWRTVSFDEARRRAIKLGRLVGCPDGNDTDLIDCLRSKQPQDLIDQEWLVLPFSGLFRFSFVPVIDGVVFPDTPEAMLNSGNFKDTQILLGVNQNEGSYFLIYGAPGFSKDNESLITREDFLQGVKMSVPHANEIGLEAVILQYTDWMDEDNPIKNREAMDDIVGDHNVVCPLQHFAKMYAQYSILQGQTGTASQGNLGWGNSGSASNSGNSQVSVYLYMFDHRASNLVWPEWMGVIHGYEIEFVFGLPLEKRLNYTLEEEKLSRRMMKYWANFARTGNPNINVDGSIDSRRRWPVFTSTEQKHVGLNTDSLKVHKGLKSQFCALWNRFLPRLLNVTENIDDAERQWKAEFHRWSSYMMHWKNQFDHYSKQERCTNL

Point of comparison: `O=C(c1ccccc1[N+](=O)[O-])N1CCN(CCN2C(=O)c3ccccc3C2=O)CC1` [Compound 4j, 2-(2-(4-(2-Nitrobenzoyl)piperazin-1-yl)ethyl) isoindoline-1,3-dione], pIC50 3.85. Against it:
- O=C(c1ccc(Cl)cc1)N1CCN(CCN2C(=O)c3ccccc3C2=O)CC1 [Compound 4c, 2-(2-(4-(4-Chlorobenzoyl)piperazin-1-yl)ethyl) isoindoline-1,3-dione] — lower, < 3.00
- COc1ccccc1C(=O)N1CCN(CCN2C(=O)c3ccccc3C2=O)CC1 [Compound 4g, 2-(2-(4-(2-Methoxybenzoyl)piperazin-1-yl)ethyl) isoindoline-1,3-dione] — within 0.2 log units, 4.00
- O=C(c1cccc(Cl)c1)N1CCN(CCN2C(=O)c3ccccc3C2=O)CC1 [Compound 4b, 2-(2-(4-(3-Chlorobenzoyl)piperazin-1-yl)ethyl) isoindoline-1,3-dione] — 0.30 log units higher, 4.15
- O=C(c1ccccc1F)N1CCN(CCN2C(=O)c3ccccc3C2=O)CC1 [Compound 4d, 2-(2-(4-(2-Fluorobenzoyl)piperazin-1-yl)ethyl) isoindoline-1,3-dione] — 1.59 log units higher, 5.44
- COc1cccc(C(=O)N2CCN(CCN3C(=O)c4ccccc4C3=O)CC2)c1 [Compound 4h, 2-(2-(4-(3-Methoxybenzoyl)piperazin-1-yl)ethyl) isoindoline-1,3-dione] — 2.04 log units higher, 5.89
- COc1ccc(C(=O)N2CCN(CCN3C(=O)c4ccccc4C3=O)CC2)cc1 [Compound 4i, 2-(2-(4-(4-Methoxybenzoyl)piperazin-1-yl)ethyl) isoindoline-1,3-dione] — 3.84 log units higher, 7.69
- O=C(c1ccccc1Cl)N1CCN(CCN2C(=O)c3ccccc3C2=O)CC1 [Compound 4a, 2-(2-(4-(2-Chlorobenzoyl)piperazin-1-yl)ethyl) isoindoline-1,3-dione] — 0.37 log units lower, 3.48
- O=C(c1ccc(F)cc1)N1CCN(CCN2C(=O)c3ccccc3C2=O)CC1 [Compound 4f, 2-(2-(4-(4-Fluorobenzoyl)piperazin-1-yl)ethyl) isoindoline-1,3-dione] — 0.45 log units higher, 4.30
- O=C(c1cccc(F)c1)N1CCN(CCN2C(=O)c3ccccc3C2=O)CC1 [Compound 4e, 2-(2-(4-(3-Fluorobenzoyl)piperazin-1-yl)ethyl) isoindoline-1,3-dione] — 4.30 log units higher, 8.15
